Source: patent US20220016092A1, “METHODS FOR TREATING SYMPTOMS AND DISORDERS ASSOCIATED WITH LYSOSOMAL STORAGE DISEASES” (GENZYME CORPORATION, priority 2019, published 2022)
“And” between values parts separate entries of the source, which are not always exact repeats. Equal values may be shown once. “Also recorded” adds a separate entry of the source.

What was measured:
Type in all cases: in vivo, human
[1] = system: GL-3 inclusions in skin cells; assay: Clinical study in Fabry disease patients: skin GL-3 inclusion score by light microscopy
Procedure: A three-year open-label investigation of Compound 2 in young classic Fabry disease patients was conducted in order to evaluate the long-term safety, pharmacodynamics and exploratory efficacy of Compound 2 in adult male Fabry patients. Eleven subjects enrolled in the study, and seven subjects completed all aspects of the study. All subjects were males diagnosed with classic Fabry disease confirmed by genotype and residual alpha-galactosidase activity below detection levels (9 of the 11 had nonsense mutation in the GLA gene). All subjects had lyso-GL3 levels in plasma of at least 65 ng/mL and had no prior Fabry disease-specific treatment. The median age of subject was 24 years (range 19-37).
Each sample was scored independently by 3 pathologists for the presence of GL-3 inclusions on a four-point scale, and rated as 0 (no/trace), 1 (mild), 2 (moderate), or 3 (severe) according to Eng et al., N. Engl. J. Med. 345:9-16 (2001). A single score per patient per time point was derived by taking the score rated by the majority of the three pathologists. If a majority score could not be derived, then the median score was used (resulting in some fractional scores). Plasma samples were also analyzed for GL-3, lyso-GL-3, GL-1 and GM3 at baseline and weeks 12, 26, 52 and 156. Pain scores and abdominal symptoms were analyzed at baseline and weeks 12, 26, 52, 104 and 156 using the SF-36 scoring protocol.

[2] = system: adult patients with Gaucher disease Type 3; assay: Clinical study in GD-3 patients: interstitial lung disease by high-resolution CT; conditions: 15 mg/day + imiglucerase
Procedure: During the study patients were evaluated for safety and tolerability, CSF and plasma biomarkers (glucosylceramide, GL-1; glucosylsphingosine, lyso-GL1), pharmacokinetics, markers for systemic disease (spleen and liver volume measured by magnetic resonance imaging (MRI), platelet count, hemoglobin levels), indicia of interstitial lung disease (high resolution pulmonary computed tomography (CT)), and horizontal saccadic eye movement.
Severity of interstitial lung disease was characterized by the percent of lung volume affect by ILD as measured by high-resolution CT in four lung regions (aortic arch, carina, lower zone L3, lower zone L4). Patients were rated as having severe ILD (51-100% of lung volume affected), moderate ILD (26-50% of lung volume affected), mild ILD (1-25% of lung volume affected) or normal (0% of lung volume showing ILD).

[3] = system: chitotriosidase (CHITO), GM3, GPNMB, ceramide; assay: Clinical study in GD-3 patients: exploratory biomarkers
Procedure: Four exploratory biomarkers were quantified in plasma, serum and/or CSF of GD3 patients at week 4 and week 26: chitotriosidase (CHITO; an enzyme known to be elevated in GD patients) was measured in CSF and serum; GM3 (a glycosphingolipid marker known to be elevated in GD patients) was measured in CSF and plasma; and glycoprotein nonmetastatic melanoma protein B (GPNMB; reportedly a biomarker of neuropathic GD3) was measured in CSF. The results are shown in the table below as percent change from baseline at week 4 and week 26 for each parameter:
In addition, exploratory biomarkers were quantified in CSF of GD3 patients: ceramide (the precursor of GL-1), chitotriosidase (CHITO), GM3, and GPNMB.

[4] = system: adult patients with Gaucher disease Type 3; assay: Clinical study in GD-3 patients: trail making test (TMT); conditions: 15 mg/day + imiglucerase
Excerpt: The trail making test (TMT) was used to evaluate cognitive function in the patients. The TMT is one of the most widely used neuropsychological tests and is included in most test batteries. The TMT is a diagnostic tool to assess general intelligence and cognitive dysfunctions (Tombaugh et al. [2004]; Cavaco et al. [2013]). In part A of the TMT, subjects are asked to connect a cluster of numbers in ascending order. This task is a combination of visual search and general visual and motor processing speed. Part B presents a sequence which alternates between numbers and letters. Subjects must actively switch between both categories when connecting them in ascending, but alternating order.
TMT-A evaluates mainly perceptual and psychomotor speed. TMT-B assesses more specifically mental flexibility and shifting abilities. TMT B minus TMT A score is used to remove the variance attributable to the graphomotor and visual scanning components of TMT A. This derived score reflects the unique task requirements of TMT B.

[5] = Fabry patients, 15 mg/day oral, by week 156
[6] = Fabry, 15 mg/day, Endothelial Cells, Deep Vessels, 12 weeks
[7] = Fabry, 15 mg/day, Endothelial Cells, Deep Vessels, 26 weeks
[8] = Fabry, 15 mg/day, Endothelial Cells, Deep Vessels, 52 weeks
[9] = Fabry, 15 mg/day, Endothelial Cells, Deep Vessels, 156 weeks
[10] = Fabry, 15 mg/day, Endothelial Cells, Superficial Vessels, 12 weeks
[11] = Fabry, 15 mg/day, Endothelial Cells, Superficial Vessels, 26 weeks
[12] = Fabry, 15 mg/day, Endothelial Cells, Superficial Vessels, 52 weeks
[13] = Fabry, 15 mg/day, Endothelial Cells, Superficial Vessels, 156 weeks
[14] = Fabry, 15 mg/day, Perineurium Cells, 12 weeks
[15] = Fabry, 15 mg/day, Perineurium Cells, 26 weeks
[16] = Fabry, 15 mg/day, Perineurium Cells, 52 weeks
[17] = Fabry, 15 mg/day, Perineurium Cells, 156 weeks
[18] = Fabry, 15 mg/day, Smooth Muscle Cells, Deep Vessels, 12 weeks
[19] = Fabry, 15 mg/day, Smooth Muscle Cells, Deep Vessels, 26 weeks
[20] = Fabry, 15 mg/day, Smooth Muscle Cells, Deep Vessels, 52 weeks
[21] = Fabry, 15 mg/day, Smooth Muscle Cells, Deep Vessels, 156 weeks
[22] = Week 26, individual Patients 1-5
[23] = 15 mg/day + imiglucerase, Week 4, individual Patients 1-5
[24] = 15 mg/day + imiglucerase, Week 26, individual Patients 1-5

CC(C)(NC(=O)O[C@@H]1CN2CCC1CC2)c1csc(-c2ccc(F)cc2)n1 [Compound 2, (S)-quinuclidin-3-yl 2-(2-(4-fluorophenyl)thiazol-4-yl)propan-2-ylcarbamate]
Patients with a 1-point reduction in skin GL-3 score [1, 5]: five
Patients with complete clearance of GL-3 inclusions [1, 5]: two
Patients with no change in skin GL-3 score [1, 5]: one
Number of patients: skin GL-3 Score 1 unchanged [1, 6]: 1/9 (11%)
Number of patients: skin GL-3 Score 2 dropped to 1 [1, 6]: 2/9 (22%)
Number of patients: skin GL-3 Score 2 unchanged [1, 6]: 6/9 (67%)
Number of patients: skin GL-3 Score 1 unchanged [1, 7]: 1/9 (11%)
Number of patients: skin GL-3 Score 2 dropped to 1 [1, 7]: 2/9 (22%)
Number of patients: skin GL-3 Score 2 unchanged [1, 7]: 6/9 (67%)
Number of patients: skin GL-3 Score 2 dropped to 1 [1, 8]: 3/6 (50%)
Number of patients: skin GL-3 Score 2 dropped to 1.5 [1, 8]: 1/6 (17%)
Number of patients: skin GL-3 Score 2 unchanged [1, 8]: 2/6 (33%)
Number of patients: skin GL-3 Score 1 unchanged [1, 9]: 1/6 (17%)
Number of patients: skin GL-3 Score 2 dropped to 0.5 [1, 9]: 1/6 (17%)
Number of patients: skin GL-3 Score 2 dropped to 1 [1, 9]: 3/6 (50%)
Number of patients: skin GL-3 Score 2 unchanged [1, 9]: 1/6 (17%)
Number of patients: skin GL-3 Score 1 raised to 2 [1, 10]: 1/9 (11%)
Number of patients: skin GL-3 Score 1 unchanged [1, 10]: 4/9 (44%)
Number of patients: skin GL-3 Score 2 dropped to 1 [1, 10]: 3/9 (33%)
Number of patients: skin GL-3 Score 2 unchanged [1, 10]: 1/9 (11%)
Number of patients: skin GL-3 Score 1 raised to 2 [1, 11]: 1/9 (11%)
Number of patients: skin GL-3 Score 1 unchanged [1, 11]: 4/9 (44%)
Number of patients: skin GL-3 Score 2 dropped to 1 [1, 11]: 3/9 (33%)
Number of patients: skin GL-3 Score 2 unchanged [1, 11]: 1/9 (11%)
Number of patients: skin GL-3 Score 1 unchanged [1, 12]: 3/6 (50%)
Number of patients: skin GL-3 Score 2 dropped to 1 [1, 12]: 2/6 (33%)
Number of patients: skin GL-3 Score 2 unchanged [1, 12]: 1/6 (17%)
Number of patients: skin GL-3 Score 1 dropped to 0 [1, 13]: 2/6 (33%)
Number of patients: skin GL-3 Score 1 unchanged [1, 13]: 1/6 (17%)
Number of patients: skin GL-3 Score 2 dropped to 1 [1, 13]: 3/6 (50%)
Number of patients: skin GL-3 Score 1 raised to 2 [1, 14]: 1/9 (11%)
Number of patients: skin GL-3 Score 2 unchanged [1, 14]: 8/9 (89%)
Number of patients: skin GL-3 Score 1 raised to 2 [1, 15]: 1/9 (11%)
Number of patients: skin GL-3 Score 2 unchanged [1, 15]: 8/9 (89%)
Number of patients: skin GL-3 Score 1 raised to 2 [1, 16]: 1/6 (17%)
Number of patients: skin GL-3 Score 2 dropped to 1 [1, 16]: 1/6 (17%)
Number of patients: skin GL-3 Score 2 dropped to 1.5 [1, 16]: 1/6 (17%)
Number of patients: skin GL-3 Score 2 unchanged [1, 16]: 3/6 (50%)
Number of patients: skin GL-3 Score 1 unchanged [1, 17]: 1/6 (17%)
Number of patients: skin GL-3 Score 2 dropped to 1.5 [1, 17]: 1/6 (17%)
Number of patients: skin GL-3 Score 2 unchanged [1, 17]: 4/6 (67%)
Number of patients: skin GL-3 Score 1.5 raised to 2 [1, 18]: 2/9 (22%)
Number of patients: skin GL-3 Score 2 unchanged [1, 18]: 7/9 (78%)
Number of patients: skin GL-3 Score 1.5 unchanged [1, 19]: 2/9 (22%)
Number of patients: skin GL-3 Score 2 unchanged [1, 19]: 7/9 (78%)
Number of patients: skin GL-3 Score 1.5 raised to 2 [1, 20]: 1/5 (20%)
Number of patients: skin GL-3 Score 2 unchanged [1, 20]: 4/5 (80%)
Number of patients: skin GL-3 Score 1.5 raised to 2 [1, 21]: 1/6 (17%)
Number of patients: skin GL-3 Score 2 dropped to 1 [1, 21]: 1/6 (17%)
Number of patients: skin GL-3 Score 2 dropped to 1.5 [1, 21]: 1/6 (17%)
Number of patients: skin GL-3 Score 2 unchanged [1, 21]: 3/6 (50%)
ILD severity, Aortic Arch Left [2, 22]: Norm (normal (0% of lung volume showing ILD)); also recorded: Mild (mild ILD (1-25% of lung volume affected))
ILD severity, Aortic Arch Right [2, 22]: Norm (normal (0% of lung volume showing ILD)); also recorded: Mild (mild ILD (1-25% of lung volume affected))
ILD severity, Carina Left [2, 22]: Norm (normal (0% of lung volume showing ILD)); also recorded: Mild (mild ILD (1-25% of lung volume affected))
ILD severity, Carina Right [2, 22]: Norm (normal (0% of lung volume showing ILD)); also recorded: Mod (moderate ILD (26-50% of lung volume affected)); also recorded: Mild (mild ILD (1-25% of lung volume affected))
ILD severity, Zone L3 Left [2, 22]: Norm (normal (0% of lung volume showing ILD)); also recorded: Mild (mild ILD (1-25% of lung volume affected))
ILD severity, Zone L3 Right [2, 22]: Norm (normal (0% of lung volume showing ILD)); also recorded: Mild (mild ILD (1-25% of lung volume affected))
ILD severity, Zone L4 Left [2, 22]: Norm (normal (0% of lung volume showing ILD)); also recorded: Mod (moderate ILD (26-50% of lung volume affected))
ILD severity, Zone L4 Right [2, 22]: Norm (normal (0% of lung volume showing ILD)); also recorded: Mod (moderate ILD (26-50% of lung volume affected))
Patients showing regression of ILD ([2]; after 26 weeks): 4 out of 5
GM3 in CSF ([3]; 15 mg/day + imiglucerase, 4, 26 and 52 weeks, the four of six patients measurable at baseline): undetectable
CHITO in CSF, percent change from baseline [3, 23]: −5% and +11% and +9% and −6% (2×)
CHITO in Serum, percent change from baseline [3, 23]: −11% and +8% and −7% and −12% and −1%
GM3 in CSF, percent change from baseline [3, 23]: −51% and −59% (2×) and 0%
GM3 in Plasma, percent change from baseline [3, 23]: −70% and −63% and −65% and −62% and −47%
GPNMB in CSF, percent change from baseline [3, 23]: −63% and +30% and +9% and −6% and −2%
CHITO in CSF, percent change from baseline [3, 24]: −10% and −11% and +20% and −1% and +68%
CHITO in Serum, percent change from baseline [3, 24]: −43% and −55% and −1% and +98% and −11%
GM3 in CSF, percent change from baseline [3, 24]: −51% and 0% (2×) and −59% (2×)
GM3 in Plasma, percent change from baseline [3, 24]: −86% and −69% and −74% and −72% and +10%
GPNMB in CSF, percent change from baseline [3, 24]: −14% and 0% and +45% and +10% and −8%
CSF concentrations of ceramide, CHITO or GPNMB ([3]; 15 mg/day + imiglucerase, after 52 weeks): no significant changes
Mean difference in time taken to complete Trail B minus Trail A ([4]; 52 weeks, SD=54.3): 66.2 s
Patients with a TMT-A reduction, excluding Patient 5 ([4]; Week 52): four of five
Patients with a TMT-B reduction, excluding Patient 5 ([4]; Week 52): five of five
Patients with a reduction in the (TMT B−TMT A) time ([4]; Week 52): 5 of 6
Patients with an improvement in Trail B minus Trial A, excluding Patient 5 ([4]; Week 52): four of five
Patients with reduction in time taken to complete Trail A ([4]; Week 52): Four of six
Patients with reduction in time taken to complete Trail B ([4]; Week 52): six of six
